{
  "source": "patent US20260015574A1",
  "about": "“METHODS FOR SHORTENING LAG PHASE DURATION IN MICROORGANISMS” (YEDA RESEARCH AND DEVELOPMENT CO. LTD., priority 2022, published 2026)",
  "key": {"P. inhibens ΔmetE mutant": {"test_system": "P. inhibens ΔmetE mutant", "experiment": "Lag phase shortening in ΔmetE mutant", "type": "cell-based, Phaeobacter inhibens", "details": "2 μM DMSP, minimal media", "method": "For creation of P. inhibens knockout cells, ˜1,000 bp regions upstream and downstream of the gene of interest were amplified by PCR (Phusion High-Fidelity DNA polymerase, Thermo Scientific), using primers that added homologous regions to gentamycin or kanamycin resistance markers. The fragments were assembled and cloned into the TOPOII vector (Invitrogen) using restriction-free cloning (Peleg Y. & Unger T., 2014), generating a knockout (KO) plasmid. P. inhibens electrocompetent cells (300 μl) were transformed with 10 μg of the constructed KO plasmid by a pulse of 1.8 kV (Bio Rad). Cells were selected on ½YTSS agar plates containing 30 μg/ml gentamycin or 150 μg/ml kanamycin. Successful knockouts in single cell clones were verified by PCR and sanger sequencing.\nP. inhibens harbors another methionine synthase encoded by metE (FIGS. 1C and 4; gene 65). To test the possible contribution of this enzyme to lag phase shortening the inventors knocked-out the gene and examined the performance of the mutant strain. […] To further rule out the involvement of MetE in lag phase shortening, the inventors perturbed the function of MetE using an inhibitor of its methyl donor. To produce methionine, MetE utilizes 5-methyl-tetrahydrofolate (THF) as a methyl donor (Pejchal and Ludwig, 2005). THF is central in the process of bacterial nucleotide production (Quinlivan et al., 2000)."}, "[1]": {"test_system": "Bacillus subtilis strain 168", "experiment": "Lag phase shortening in B. subtilis", "type": "cell-based", "details": "2 μM compound", "method": "The bacterial strain Phaeobacter inhibens DSM 17395 was purchased from the German collection of microorganisms and cell cultures (DSMZ, Braunschweig, Germany) and stored at −80° C. with 20% glycerol. Routine cultivation of P. inhibens was conducted at 30° C. in artificial seawater medium (ASW) based on Goyet and Poisson (1989). The ASW medium contained mineral salts (NaCl, 409.41 mM; Na2SO4, 28.22 mM; KCl, 9.08 mM; KBr, 0.82 mM; NaF, 0.07 mM; Na2CO3, 0.20 mM; NaHCO3, 2 mM; MgCl2, 50.66 mM; SrCl2, 0.09 mM), L1 vitamins (thiamine HCl, 100 μg/L; biotin, 0.5 μg/L; vitamin B12, […]), L1 trace elements (Na2EDTA·2H2O, 4.36 mg/L; FeCl3·6H2O, 3.15 mg/L; MnCl2·4H2O, 178.1 μg/L; ZnSO4·7H2O, 23.0 μg/L; CoCl2·6H2O, 11.9 μg/L; CuSO4·5H2O, 2.5 μg/L; Na2MoO4·2H2O, 19.9 μg/L; H2SeO3, 1.29 μg/L; NiSO4·6H2O, 2.63 μg/L; Na3 VO4, 1.84 μg/L; K2CrO4, 1.94 μg/L), and L1 nutrients (NaNO3, 882 μM; NaH2PO4, 36.22 μM). ASW was adjusted to pH 8 using HCl. If not otherwise stated, the medium was further supplemented with a source of carbon (glucose, 1 mM), nitrogen (NH4Cl, 5 mM), and sulfur (Na2SO4, 33 mM), referred to as ASW+CNS. Methylated effector compounds (e.g., donors) were administered at 1 or 2 μM in routine assays, or in higher concentrations as stated. The bacterium Bacillus subtilis strain 168 was cultivated in M9 Medium (Na2HPO4, 6 g/L; KH2PO4, 3 g/L; NaCl, 0.5 g/L; NH4CL, 1 g/L; CaCl2), 100 µM; MgSO4, 1 mM; Thiamine, 5 mg/L; EDTA, 50 mg/L; FcCl3, 4.98 mg/L; ZnCl2, 0.84 mg/L; CuCl2·2H2O, 0.13 mg/L; CoCl2·6H2O, 0.1 mg/L; H3BO3, 0.1 mg/L; MnCl2·4H2O, 0.016 mg/L; pH 7.1) with 20 mM glucose. Other bacterial strains tested for lag phase shortening were isolated from the marine environment (Despotović et al., 2021), and cultivated in ASW+CNS. A 96-well Tecan Infinite M Plex plate reader was used for high-resolution monitoring of bacterial growth dynamics at 30° C. […] The growth of bacteria in co-culture with algae was monitored by counting colony forming units (CFU) on ½ YTSS agar plates. The growth of algae was monitored with a CellStream flow cytometer (Merck, Darmstadt, Germany). […]"}, "[2]": {"test_system": "marine bacterium Vibrio sp.", "experiment": "Lag phase shortening in Vibrio sp.", "type": "cell-based", "details": "2 μM compound", "method": "The bacterial strain Phaeobacter inhibens DSM 17395 was purchased from the German collection of microorganisms and cell cultures (DSMZ, Braunschweig, Germany) and stored at −80° C. with 20% glycerol. Routine cultivation of P. inhibens was conducted at 30° C. in artificial seawater medium (ASW) based on Goyet and Poisson (1989). The ASW medium contained mineral salts (NaCl, 409.41 mM; Na2SO4, 28.22 mM; KCl, 9.08 mM; KBr, 0.82 mM; NaF, 0.07 mM; Na2CO3, 0.20 mM; NaHCO3, 2 mM; MgCl2, 50.66 mM; SrCl2, 0.09 mM), L1 vitamins (thiamine HCl, 100 μg/L; biotin, 0.5 μg/L; vitamin B12, […]), L1 trace elements (Na2EDTA·2H2O, 4.36 mg/L; FeCl3·6H2O, 3.15 mg/L; MnCl2·4H2O, 178.1 μg/L; ZnSO4·7H2O, 23.0 μg/L; CoCl2·6H2O, 11.9 μg/L; CuSO4·5H2O, 2.5 μg/L; Na2MoO4·2H2O, 19.9 μg/L; H2SeO3, 1.29 μg/L; NiSO4·6H2O, 2.63 μg/L; Na3 VO4, 1.84 μg/L; K2CrO4, 1.94 μg/L), and L1 nutrients (NaNO3, 882 μM; NaH2PO4, 36.22 μM). ASW was adjusted to pH 8 using HCl. […] A 96-well Tecan Infinite M Plex plate reader was used for high-resolution monitoring of bacterial growth dynamics at 30° C. […] The growth of bacteria in co-culture with algae was monitored by counting colony forming units (CFU) on ½ YTSS agar plates. The growth of algae was monitored with a CellStream flow cytometer (Merck, Darmstadt, Germany). […]"}, "[3]": {"test_system": "bacteria that are plant-associated", "experiment": "Lag phase shortening in plant-associated bacteria", "type": "cell-based", "text": "To explore whether lag phase shortening is a general mechanism among bacteria, the inventors tested the effect of methylated compounds in bacteria with different lifestyles. […] Since methylated compounds are a hallmark of photosynthesizing organisms, the inventors next tested a variety of bacteria that are plant-associated. […] Finally, to establish the prevalence of lag phase shortening among bacteria, the inventors tested the model bacterium E. coli. This bacterium is not commonly found associated with photosynthesizing organisms, and thus, is unlikely to respond to algal metabolites. […] The synchrony between specific compounds and different groups of bacteria may reflect the natural context […]."}, "[4]": {"test_system": "methyl group metabolism pathway genes of P. inhibens", "experiment": "Lag phase transcriptome (dual RNA-sequencing) of DMSP-treated bacteria", "type": "cell-based, Phaeobacter inhibens", "details": "50 μM DMSP, within the first 15 min and 40 min of the lag phase, vs untreated", "method": "The bacterium P. inhibens DSM 17395 was co-cultivated with the alga Emiliania huxleyi CCMP3266 (purchased from Bigelow Laboratory for Ocean Sciences, East Boothbay, ME) to investigate the metabolic response of the bacterium in the presence of algae, compared to bacteria grown as pure culture with 2 mM glucose. The analysis was conducted using a dual RNA-Sequencing method adapted from Avraham et al. 2016. The adapted method was previously described by Sperfeld et al., 2021. […] The resulting gene expression data, together with data from public databases (BioCyc and KEGG), were used to reconstruct the methyl group metabolism in P. inhibens DSM 17395 (FIG. 1C). The same dual RNA-sequencing method was used to identify genes that are differentially expressed during the lag phase of P. inhibens pure cultures treated with 50 μM DMSP, compared to control cultures without added DMSP (FIGS. 10A, and 11A-11B).\nTo further elucidate the fate of methyl groups, the inventors analyzed the transcriptome of DMSP-treated P. inhibens bacteria during the lag phase, and compared it to untreated control cultures. […] To further establish that DMSP methyl groups are assimilated via the methionine cycle, the inventors measured the methionine synthesis activity in protein crude extracts of stationary bacterial cells, using a biochemical assay followed by LC/MS analysis. […]"}},
  "data": [
    {"compound": "C[S+](C)CCC(=O)[O-]", "note": "[DMSP, dimethylsulfoniopropionate]", "values": [
      {"measurement": "lag phase shortening", "setting": "P. inhibens ΔmetE mutant", "value": "exhibited lag phase shortening similar to wild-type bacteria"},
      {"measurement": "lag phase shortening", "setting": "[1]", "value": "induction of the lag phase shortening"},
      {"measurement": "lag phase shortening", "setting": "[2]", "value": "induction of the lag phase shortening"},
      {"measurement": "lag phase shortening", "setting": "[3]", "value": "to slightly less extent"},
      {"measurement": "expression of the methyl group metabolism pathway", "setting": "[4]", "value": "upregulated"}
    ]}
  ]
}
